Assay results taken from patent US20250230193A1, “CYCLIC COMPOUND HAVING SELECTIVE KRAS INHIBITORY EFFECT ON HRAS AND NRAS” (CHUGAI SEIYAKU KABUSHIKI KAISHA, priority 2022, published 2025).
*1 amine or outer side, *2 acyl side, *3 side chain or, on linkers, in order; H or OH if unused. Where a SMILES comes first, the peptide text is derived from it. Bridges are numbered along the chain shown (N, C = ends). [ ]: non-standard residue; d: D form. The star is where a group is joined. hPhe(3-Cl-4-CF3) = N[C@@H](CCc1ccc(C(F)(F)F)c(Cl)c1)C(=O)O; X26 = COCCCN([C@@H](Cc1ccc(C)cc1)C(=O)[*:2])[*:1]; NEtPhe(4-Me) = CCN[C@@H](Cc1ccc(C)cc1)C(=O)O; NMeGly(cPent) = CN[C@H](C(=O)O)C1CCCC1; NMeD = CN[C@@H](CC(=O)O)C(=O)O; NMeL = CN[C@@H](CC(C)C)C(=O)O; Morpholide = C1CN(*)CCO1; NMeA = CN[C@@H](C)C(=O)O; Ac5c = NC1(C(=O)O)CCCC1; Aze = O=C(O)[C@@H]1CCN1; NEtG = CCNCC(=O)O; Sar = CNCC(=O)O

Key:
[1] = target: GDP-bound NRAS wild-type protein (Homo sapiens, UniProt P01111); test: Binding to NRAS by surface plasmon resonance (SPR), Single Cycle Kinetics; conditions: for NRAS/KRAS (ratio of KD value with respect to NRAS to KD value with respect to KRAS) / NRAS/KRAS (ratio of KD value for NRAS to KD value for KRAS) / NRAS/KRAS (ratio of KD for GDP-bound NRAS wild-type to KD for KRAS): SPR; for NRAS/KRAS (ratio of KD value with respect to NRAS to KD value with respect to KRAS) / NRAS/KRAS (ratio of KD value for NRAS to KD value for KRAS): GDP-bound NRAS wild-type vs GDP-bound KRAS wild-type
[2] = target: GDP-bound HRAS wild-type protein (Homo sapiens, UniProt P01112); test: Binding to HRAS by surface plasmon resonance (SPR), Single Cycle Kinetics; conditions: for HRAS/KRAS (ratio of KD value with respect to HRAS to KD value with respect to KRAS) / HRAS/KRAS (ratio of KD value for HRAS to KD value for KRAS) / HRAS/KRAS (ratio of KD for GDP-bound HRAS wild-type to KD for KRAS): SPR; for HRAS/KRAS (ratio of KD value with respect to HRAS to KD value with respect to KRAS) / HRAS/KRAS (ratio of KD value for HRAS to KD value for KRAS): GDP-bound HRAS wild-type vs GDP-bound KRAS wild-type
GDP-bound HRAS wild-type protein, sequence (P01112 whole entry): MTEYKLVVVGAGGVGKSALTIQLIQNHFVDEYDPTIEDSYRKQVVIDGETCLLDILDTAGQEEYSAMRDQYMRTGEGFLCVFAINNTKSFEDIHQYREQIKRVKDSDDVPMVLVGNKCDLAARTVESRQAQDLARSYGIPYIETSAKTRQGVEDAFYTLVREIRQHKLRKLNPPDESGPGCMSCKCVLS

GDP-bound NRAS wild-type protein, sequence (P01111 whole entry): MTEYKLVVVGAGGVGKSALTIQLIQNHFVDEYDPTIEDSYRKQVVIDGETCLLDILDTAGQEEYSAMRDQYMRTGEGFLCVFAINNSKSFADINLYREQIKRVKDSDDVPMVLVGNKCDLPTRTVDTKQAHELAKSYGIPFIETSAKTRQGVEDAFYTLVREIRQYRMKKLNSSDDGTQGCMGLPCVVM

For `CCCOC[C@H]1C(=O)N[C@@H]([C@@H](C)CC)C(=O)N2CCC[C@H]2C(=O)N(C)[C@H]2C/C=C\CCN(C2=O)[C@@H](Cc2ccc(C(F)(F)F)cc2)C(=O)N(C)CC(=O)N[C@@H](CCc2ccc(C(F)(F)F)c(OC)c2)C(=O)N2C[C@H](OCC)C[C@H]2C(=O)N(C)C2(CCC2)C(=O)N(C)[C@@H](C2CCCC2)C(=O)N(C)[C@H](C(=O)N(C)C)CC(=O)N1C` [PP2322], the “NRAS/KRAS (ratio of KD value with respect to NRAS to KD value with respect to KRAS)” value [1] was “A (a compound having 10 or more and less than 20 is denoted as A)” and the “HRAS/KRAS (ratio of KD value with respect to HRAS to KD value with respect to KRAS)” value [2] was “B (a compound having 3 or more and less than 10 is denoted as B)”.
In the case of `CC[C@H](C)[C@@H]1NC(=O)[C@H](CC(F)(F)F)N(C)C(=O)C[C@@H](C(=O)N(C)C)N(C)C(=O)[C@H](C2CCCC2)N(C)C(=O)C2(CC(C)(C)C2)NC(=O)[C@@H]2CCCN2C(=O)[C@H](CCc2cc(F)c(C(F)(F)F)c(F)c2)NC(=O)CN(C)C(=O)[C@H](Cc2ccc(C(F)(F)F)cc2)N2CC/C=C\C[C@@H](C2=O)N(C)C(=O)CN(C)C1=O` [PP1722], the “NRAS/KRAS (ratio of KD value for NRAS to KD value for KRAS)” value ([1]; KD ratio) is reported as “AA (a compound having 20 or more is denoted as AA)” and the “HRAS/KRAS (ratio of KD value for HRAS to KD value for KRAS)” value ([2]; KD ratio) is reported as “A (a compound having 10 or more and less than 20 is denoted as A)”.
For `CCC[C@H]1C(=O)N[C@@H](CC(C)C)C(=O)N2C[C@@H](OC)C[C@H]2C(=O)N(C)[C@H]2C/C=C\CCN(C2=O)[C@@H](Cc2ccc(C)cc2)C(=O)N(C)CC(=O)N[C@@H](CCc2ccc(C(F)(F)F)c(Cl)c2)C(=O)N2C[C@H](OCC)C[C@H]2C(=O)NC2(CC(C)(C)C2)C(=O)N(C)[C@@H](C2CCCC2)C(=O)N(C)[C@H](C(=O)N(C)C)CC(=O)N1C` [PP2555], the “NRAS/KRAS (ratio of KD value with respect to GDP-bound NRAS wild-type protein to KD value with respect to KRAS)” value ([1]; KD ratio NRAS/KRAS, class symbols) was “A (a compound having 10 or more and less than 20 is denoted as A)” and the “HRAS/KRAS (ratio of KD value with respect to GDP-bound HRAS wild-type protein to KD value with respect to KRAS)” value ([2]; KD ratio HRAS/KRAS, class symbols) was “B (a compound having 3 or more and less than 10 is denoted as B)”.
For `CCCN(C)C(=O)[C@@H]1CC(=O)N(C)[C@@H](C2CCC2)C(=O)N[C@@H]([C@@H](C)CC)C(=O)N(C)CC(=O)N(C)[C@H]2C/C=C\CCN(C2=O)[C@@H](Cc2ccc(C(F)(F)F)cc2)C(=O)N(C)CC(=O)N[C@@H](CCc2ccc(C(F)(F)F)c(OC)c2)C(=O)N2C[C@@H](C)C[C@H]2C(=O)NC2(CCC2)C(=O)N(C)[C@@H](C2CCCC2)C(=O)N1C` [PP2072], the “NRAS/KRAS (ratio of KD value with respect to NRAS to KD value with respect to KRAS)” value [1] was “A (a compound having 10 or more and less than 20 is denoted as A)” and the “HRAS/KRAS (ratio of KD value with respect to HRAS to KD value with respect to KRAS)” value [2] was “A (a compound having 10 or more and less than 20 is denoted as A)”.
In the case of `CC[C@H](C)[C@@H]1NC(=O)[C@H](CC(C)C)N(C)C(=O)C[C@@H](C(=O)N2CCOCC2)N(C)C(=O)[C@H](C2CCCC2)N(C)C(=O)C2(CCCC2)NC(=O)[C@@H]2CCCN2C(=O)[C@H](CCc2ccc(C(F)(F)F)c(Cl)c2)NC(=O)CN(C)C(=O)[C@H](Cc2ccc(C)cc2)N(CCCOC)C(=O)[C@@H]2CCN2C(=O)[C@H](C)N(C)C1=O` [PP0093] ([NMeL]I[NMeA][Aze][X26][Sar][hPhe(3-Cl-4-CF3)]P[Ac5c][NMeGly(cPent)][NMeD]-Morpholide; lactam N-11), the “NRAS/KRAS (ratio of KD for GDP-bound NRAS wild-type to KD for KRAS)” value ([1]; KD ratio NRAS/KRAS) is reported as “C (A compound having a KD ratio of 0.1 or more and less than 3 is denoted as C)” and the “HRAS/KRAS (ratio of KD for GDP-bound HRAS wild-type to KD for KRAS)” value ([2]; KD ratio HRAS/KRAS) is reported as “B (a compound having 3 or more and less than 10 is denoted as B)”.
In the case of `CCO[C@@H]1C[C@H]2C(=O)NC3(CC(C)(C)C3)C(=O)N(C)[C@@H](C3CCCC3)C(=O)N(C)[C@H](C(=O)N(C)CC)CC(=O)N(C)[C@@H](CC(C)C)C(=O)N[C@@H]([C@@H](C)CC)C(=O)N(C)CC(=O)N(C)[C@H]3C/C=C\CCN(C3=O)[C@@H](Cc3ccc(C(F)F)cc3)C(=O)N(C)CC(=O)N[C@@H](CCc3cc(F)c(C(F)(F)F)c(F)c3)C(=O)N2C1` [PP2046], the “NRAS/KRAS (ratio of KD value with respect to NRAS to KD value with respect to KRAS)” value [1] is reported as “A (a compound having 10 or more and less than 20 is denoted as A)” and the “HRAS/KRAS (ratio of KD value with respect to HRAS to KD value with respect to KRAS)” value [2] is reported as “A (a compound having 10 or more and less than 20 is denoted as A)”.
`CCO[C@@H]1C[C@H]2C(=O)NC3(CCC3)C(=O)N(C)[C@@H](C3CCCC3)C(=O)N(C)[C@H](C(=O)N(C)CC)CC(=O)N(C)[C@@H](C(C)C)C(=O)N[C@@H]([C@@H](C)CC)C(=O)N(C)CC(=O)N(C)[C@H]3C/C=C\CCN(C3=O)[C@@H](Cc3ccc(C(F)(F)F)cc3)C(=O)N(C)CC(=O)N[C@@H](CCc3cc(F)c(C(F)(F)F)c(F)c3)C(=O)N2C1` [PP1990] was tested, and the “NRAS/KRAS (ratio of KD value for NRAS to KD value for KRAS)” value ([1]; KD ratio) was “A (a compound having 10 or more and less than 20 is denoted as A)” and the “HRAS/KRAS (ratio of KD value for HRAS to KD value for KRAS)” value ([2]; KD ratio) was “A (a compound having 10 or more and less than 20 is denoted as A)”.
With `CCC[C@H]1C(=O)N[C@@H]([C@@H](C)CC)C(=O)N(C2CC2)CC(=O)N(C)[C@H]2C/C=C\CCN(C2=O)[C@@H](Cc2ccc(C)cc2)C(=O)N(C)CC(=O)N[C@@H](CCc2ccc(C(F)(F)F)c(OC)c2)C(=O)N2C[C@H](OCC)C[C@H]2C(=O)N(C)C2(CCC2)C(=O)N(C)[C@@H](C(CC)CC)C(=O)N(C)[C@H](C(=O)N(C)C)CC(=O)N1C` [PP2325] the “NRAS/KRAS (ratio of KD value with respect to NRAS to KD value with respect to KRAS)” value [1] was “A (a compound having 10 or more and less than 20 is denoted as A)” and the “HRAS/KRAS (ratio of KD value with respect to HRAS to KD value with respect to KRAS)” value [2] was “A (a compound having 10 or more and less than 20 is denoted as A)”.
`CCO[C@@H]1C[C@H]2C(=O)NC3(CC(C)(C)C3)C(=O)N(C)[C@@H](C3CCCC3)C(=O)N(C)[C@H](C(=O)N(C)CC)CC(=O)N(C)[C@@H](CC(C)C)C(=O)N[C@@H]([C@@H](C)CC)C(=O)NCC(=O)N(C)[C@H]3C/C=C\CCN(C3=O)[C@@H](Cc3ccc(C(F)(F)F)cc3)C(=O)N(C)CC(=O)N[C@@H](CCc3cc(F)c(C(F)(F)F)c(F)c3)C(=O)N2C1` [PP1771] was tested, and the “NRAS/KRAS (ratio of KD value for NRAS to KD value for KRAS)” value ([1]; KD ratio) was “A (a compound having 10 or more and less than 20 is denoted as A)” and the “HRAS/KRAS (ratio of KD value for HRAS to KD value for KRAS)” value ([2]; KD ratio) was “A (a compound having 10 or more and less than 20 is denoted as A)”.
With `CCO[C@@H]1C[C@H]2C(=O)NC3(CCC3)C(=O)N(C)[C@@H](C3CCCC3)C(=O)N(C)[C@H](C(=O)N3CCOCC3)CC(=O)N(C)[C@@H](Cc3ccc(C#N)cc3)C(=O)N[C@@H]([C@@H](C)CC)C(=O)N(C)CC(=O)N(C)[C@H]3CCCCCN(C3=O)[C@@H](Cc3ccc(C(F)(F)F)cc3)C(=O)N(C)CC(=O)N[C@@H](CCc3cc(F)c(C(F)(F)F)c(F)c3)C(=O)N2C1` [PP1167] the “NRAS/KRAS (ratio of KD value with respect to NRAS to KD value with respect to KRAS)” value ([1]; KD ratio) was “B (a compound having 3 or more and less than 10 is denoted as B)” and the “HRAS/KRAS (ratio of KD value with respect to HRAS to KD value with respect to KRAS)” value ([2]; KD ratio) was “B (a compound having 3 or more and less than 10 is denoted as B)”.
`CC[C@H](C)[C@@H]1NC(=O)[C@H](CC(C)C)N(C)C(=O)C[C@@H](C(=O)N2CCOCC2)N(C)C(=O)[C@H](C2CCCC2)N(C)C(=O)C2(CCCC2)NC(=O)[C@@H]2CCCN2C(=O)[C@H](CCc2ccc(C(F)(F)F)c(Cl)c2)NC(=O)CN(CC)C(=O)[C@H](Cc2ccc(C)cc2)N(CC)C(=O)[C@@H]2CCN2C(=O)[C@H](C)N(C)C1=O` [PP0006] ([NMeL]I[NMeA][Aze][NEtPhe(4-Me)][NEtG][hPhe(3-Cl-4-CF3)]P[Ac5c][NMeGly(cPent)][NMeD]-Morpholide; lactam N-11) was tested, and the “NRAS/KRAS (ratio of KD for GDP-bound NRAS wild-type to KD for KRAS)” value ([1]; KD ratio NRAS/KRAS) was “C (A compound having a KD ratio of 0.1 or more and less than 3 is denoted as C)” and the “HRAS/KRAS (ratio of KD for GDP-bound HRAS wild-type to KD for KRAS)” value ([2]; KD ratio HRAS/KRAS) was “C (A compound having a KD ratio of 0.1 or more and less than 3 is denoted as C)”.
